From patent publication US6403554B2, “Polyunsaturated fatty acid derivatives and their use” (Ardenia Investments Ltd., priority 1998, dated 2002)
One block for each compound: values may come before it.

How the values were obtained:
rats = settings: injected into rats; cited from earlier work
endothelial cells = settings: cited from earlier work
[1] = test system: antibody-forming cells (AFC) in the spleen; experiment: Influence of rat AFP/compound complex and compound alone on humoral immune response, C57B1/6 male mice; type: in vivo; settings: compound alone, 5th day
Method: The influence of complexes of AFP with one of the title compounds 1-4, 1a-4a, 5-20 as well as their basic components on humoral immune response was estimated by counting the quantity of antibody-forming cells (AFC) in the mice spleen.
0.15 ml of AFP/Compound 7 complex (1:200) was administered intravenously to 6 male mice of C57B1/6 line (weight 18-22 g) in the dose of 9 μg of AFP and 91 μg of compound 7 per capita. Simultaneously, a suspension of 5·10^7 sheep erythrocytes was injected intraperitoneally (0.2 ml per capita). In the group with compound 7 mice were injected intravenously by one in the dose of 91 μg. Animals of group with AFP received 9 μg of AFP. Mice of control group were injected intravenously with equal volume of saline. AFP/Compound 7 complex effect on humoral immune response was analyzed by counting the quantity of AFC in the spleen according to Cunningham (per 10^6 spleen cells and per spleen).
0.15 ml of AFP/Compound 15 complex (1:200) was administered intravenously to 6 mice males of C57B1/6 line (weight 18-22 g) in the dose of 9 μg of AFP and 91 μg of compound 15 per capita. Simultaneously, a suspension of 5·10^7 sheep erythrocytes was injected intraperitoneally (0.2 ml per capita). In the group receiving compound 15, the mice were injected intravenously by one in the dose of 91 μg. Animals in the AFP-group received 9 μg of AFP. Mice in the control group were injected intravenously with an equal volume of saline. The effect of the AFP/Compound 15 complex on humoral immune response was analyzed by counting the quantity of AFC in the spleen according to Cunningham (per 10^6 spleen cells and per spleen).
0.15 ml of AFP/Compound 1 complex was administered intravenously to 6 mice males of C57B1/6 line (weight 18-22 g) in the dose of 9 μg of AFP and 45.5 μg of compound 1 per capita. Simultaneously, a suspension of 5·10^7 sheep erythrocytes was injected intraperitoneally (0.2 ml per capita). In the group with compound 1 mice were injected intravenously by one in the dose of 45.5 μg. Animals of group with AFP received 9 μg of AFP. Mice in the control group were injected intravenously with an equal volume of saline. Complex AFP/Compound 1 effect on humoral immune response was analyzed by counting the quantity of AFC in the spleen according to Cunningham (per 10^6 spleen cells and per spleen).

human AFP = molecular target: T1, human AFP (Homo sapiens, UniProt P02771); experiment: AFP binding: competitive substitution of [3H]arachidonic acid from the protein's binding site
T1 construct: from tissue; host or cells: human cord blood
Method: To tubes containing […] AFP in 1 ml 0.1 M bicarbonate buffer and 0.7 pmol [^3H]arachidonic acid and increasing amounts (5-5000 pmol) of arachidonic acid or any one of the title compounds 1-4, 1a-4a, and 5-20 were added. The tubes were incubated for 2 hr at room temperature. To separate protein-bound and free fractions of [^3H] arachidonic acid, tubes were incubated at 4° C. for 15 min with dextran covered activated carbon (0.5% suspension). The carbon was sedimented by centrifugation at 3000×g, aliquotes were added to 10 ml scintillating mixture and the vials were measured in a beta-counter.
The binding parameters of arachidonic acid and the compounds (1-4, 1a-4a, 5-16) the number of binding sites per protein molecule were calculated according to Scatchard (Scatchard O., Ann.N.Y.Acad.Sci. 51., p 660-664, 1949), and Blondeau (Blondeau J.-P., et al., Steroids, V. 32, N 5, P. 563-575, 1978).

[2] = test system: human AFP (alpha-fetoprotein); settings: International Application PCT/EP99/04201; cited from earlier work
AFP = molecular target: T2, AFP (Homo sapiens, UniProt P02771); settings: International Application PCT/EP99/04201; cited from earlier work
T2 construct: from tissue; host or cells: human cord blood
T2 sequence (P02771 19-609): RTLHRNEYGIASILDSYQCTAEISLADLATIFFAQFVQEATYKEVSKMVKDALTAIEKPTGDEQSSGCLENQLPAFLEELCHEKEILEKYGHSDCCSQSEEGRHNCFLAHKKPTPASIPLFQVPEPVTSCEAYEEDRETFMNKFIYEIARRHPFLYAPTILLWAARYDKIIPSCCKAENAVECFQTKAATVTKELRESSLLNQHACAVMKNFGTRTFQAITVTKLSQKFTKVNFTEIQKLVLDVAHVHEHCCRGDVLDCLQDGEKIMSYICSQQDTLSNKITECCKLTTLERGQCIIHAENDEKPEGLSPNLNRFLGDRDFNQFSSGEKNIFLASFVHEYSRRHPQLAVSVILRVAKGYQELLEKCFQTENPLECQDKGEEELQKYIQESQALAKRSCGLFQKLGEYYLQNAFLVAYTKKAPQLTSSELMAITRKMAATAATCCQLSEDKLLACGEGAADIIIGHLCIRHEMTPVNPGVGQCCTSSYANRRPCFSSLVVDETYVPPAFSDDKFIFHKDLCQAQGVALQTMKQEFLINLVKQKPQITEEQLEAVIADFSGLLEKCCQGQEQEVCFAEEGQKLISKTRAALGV

SMILES: CCCCCCCC/C=C\CCCCCCCC(N)=O [cis-9,10-octadecenoamide]
physiological sleep (rats): induced physiological sleep

SMILES: CCCCCCCC/C=C\CCCCCCCCCCCC(N)=O [Erucamide, 13-docosenamide]
inflammatory effects (endothelial cells): does not promote proliferation of endothelial cells or induce inflammatory effects
proliferation of endothelial cells (endothelial cells): does not promote proliferation of endothelial cells

SMILES: CC1=C(/C=C/C(C)=C/C=C/C(C)=C/C(=O)NCCOP(=O)(O)O)C(C)(C)CCC1 [Compound 1, N-(all-trans-Retinoyl)-O-phospho-2-aminoethanol]
relative amount of AFC ([1]; 45.5 μg/mouse i.v.): 413.1±31.5 cells per 10^6 spleen cells
total AFC amount ([1]; 45.5 μg/mouse i.v.): 38.4±3.7 × 10^3

Kd (human AFP): 16.7 nM
n (number of binding sites per protein molecule) (human AFP; three independent determinations, Scatchard): > 1.2
SMILES: CCCCC/C=C\C/C=C\C/C=C\C/C=C\CCCC(=O)O [arachidonic acid]

SMILES: CCCCC/C=C\C/C=C\C/C=C\C/C=C\CCCC(=O)NCCOP(=O)(O)O [Compound 5, N-(cis-5,8,11,14-eicosatetraenoyl)-O-phospho-2-aminoethanol]
molecules of N-AAP in micelle linked to AFP [2]: up to 300 molecules

SMILES: CCCCC/C=C\C/C=C\C/C=C\C/C=C\CCCC(=O)N[C@H](C(=O)O)[C@@H](C)OP(=O)(O)O [Compound 7, N-(cis-5,8,11,14-eicosatetraenoyl)-O-phospho-L-threonine]
relative amount of AFC ([1]; 91 μg/mouse i.v.): 574.9±39.6 cells per 10^6 spleen cells
total AFC amount ([1]; 91 μg/mouse i.v.): 60.4±5.4 × 10^3

SMILES: CC/C=C\C/C=C\C/C=C\C/C=C\C/C=C\CCCC(=O)N[C@H](C(=O)O)[C@@H](C)OP(=O)(O)O [Compound 15, N-(cis-5,8,11,14,17-eicosapentaenoyl)-O-phospho-L-threonine]
relative amount of AFC ([1]; 91 μg/mouse i.v.): 594.7±41.4 cells per 10^6 spleen cells
total AFC amount ([1]; 91 μg/mouse i.v.): 70.8±8.2 × 10^3

SMILES: CCCCC/C=C\C/C=C\C/C=C\C/C=C\CCCC(=O)NCCOP(=O)(O)O [Compound 5, N-arachidonoyl-o-phospho-2-aminoethanol]
Molecules of compound in the micelle reversibly linked to AFP (AFP): up to 300 molecules
